Measurements published in ChEMBL document CHEMBL1201862, “PubChem BioAssay data set” (2004).
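Compound exposure: 48 hours, 5 concentrations, 96-well plates. GI50 = concentration required for 50% inhibition of growth.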 Activity calls are given as the source filed them. Rule as the data show it: active = GI50 up to about 1.1 µM and inactive = higher.

Legend:
Test in all cases: DTP human tumour cell line panel, 48 h
SW-620 = system: SW-620
LXFL 529 = system: LXFL 529
KM-20L2 = system: KM-20L2
HCT-116 = system: HCT-116
XF498 = system: XF498
OVCAR-8 = system: OVCAR-8
SNB-75 = system: SNB-75
OVCAR-5 = system: OVCAR-5
HOP-18 = system: HOP-18
HCT-15 = system: HCT-15
SNB-19 = system: SNB-19
SK-OV-3 = system: SK-OV-3
SF-295 = system: SF-295
UACC-62 = system: UACC-62
HOP-62 = system: HOP-62
NCI-H226 = system: NCI-H226
SN12C = system: SN12C
HCC 2998 = system: HCC 2998
SK-MEL-2 = system: SK-MEL-2
SF-268 = system: SF-268
A498 = system: A498
RXF 393 = system: RXF 393
RPMI-8226 = system: RPMI-8226
ACHN = system: ACHN
NCI-H522 = system: NCI-H522
CAKI-1 = system: CAKI-1
OVCAR-4 = system: OVCAR-4
SK-MEL-28 = system: SK-MEL-28
IGROV-1 = system: IGROV-1
MOLT-4 = system: MOLT-4
HT-29 = system: HT-29
U-251 = system: U-251
M14 = system: M14
786-0 = system: 786-0
EKVX = system: EKVX
Malme-3M = system: Malme-3M
UO-31 = system: UO-31
COLO 205 = system: COLO 205
SF-539 = system: SF-539
M19-MEL = system: M19-MEL
HL-60 = system: HL-60
NCI-H460 = system: NCI-H460
SK-MEL-5 = system: SK-MEL-5
HOP-92 = system: HOP-92
OVCAR-3 = system: OVCAR-3
K562 = system: K562
LOX IMVI = system: LOX IMVI
SNB-78 = system: SNB-78
A549 = system: A549
CCRF-CEM = system: CCRF-CEM
UACC-257 = system: UACC-257
DMS-114 = system: DMS-114
TK-10 = system: TK-10
DMS-273 = system: DMS-273
NCI-H23 = system: NCI-H23
RXF 631 = system: RXF 631
DLD-1 = system: DLD-1
KM12 = system: KM12
SR = system: SR

COC(=O)C1CC(C(=O)OC)c2nc3cc([N+](=O)[O-])ccc3nc21 (stereo not given)
GI50 (SW-620): 89.9 µM (inactive) | GI50 (LXFL 529): 36.9 µM (inactive) | GI50 (KM-20L2): 63.7 µM (inactive) | GI50 (HCT-116): 33.7 µM (inactive) | GI50 (XF498): > 96.6 µM (inactive) | GI50 (OVCAR-8): > 90.4 µM (inactive) | GI50 (SNB-75): > 61 µM (inactive) | GI50 (OVCAR-5): > 100 µM (inactive) | GI50 (HOP-18): > 100 µM (inactive) | GI50 (HCT-15): 17.8 µM | GI50 (SNB-19): > 67.9 µM (inactive) | GI50 (SK-OV-3): > 94 µM (inactive) | GI50 (SF-295): 25.5 µM (inactive) | GI50 (UACC-62): 22.6 µM (inactive) | GI50 (HOP-62): > 52.8 µM (inactive) | GI50 (NCI-H226): > 100 µM (inactive) | GI50 (SN12C): > 79.3 µM (inactive) | GI50 (HCC 2998): 30.5 µM (inactive) | GI50 (SK-MEL-2): > 100 µM (inactive) | GI50 (SF-268): 26.4 µM (inactive) | GI50 (A498): > 100 µM (inactive) | GI50 (RXF 393): 31.6 µM (inactive) | GI50 (RPMI-8226): 26.1 µM (inactive) | GI50 (ACHN): 45.9 µM (inactive) | GI50 (NCI-H522): 7.93 µM (inactive) | GI50 (CAKI-1): 59.8 µM (inactive) | GI50 (OVCAR-4): > 100 µM (inactive) | GI50 (SK-MEL-28): > 77.3 µM (inactive) | GI50 (IGROV-1): 80.7 µM (inactive) | GI50 (MOLT-4): 19.4 µM (inactive) | GI50 (HT-29): 51.3 µM (inactive) | GI50 (U-251): 98.2 µM (inactive) | GI50 (M14): 39 µM (inactive) | GI50 (786-0): > 87.9 µM (inactive) | GI50 (EKVX): > 81.3 µM (inactive) | GI50 (Malme-3M): > 100 µM (inactive) | GI50 (UO-31): 33.7 µM (inactive) | GI50 (COLO 205): 49.1 µM (inactive) | GI50 (SF-539): 41 µM (inactive) | GI50 (M19-MEL): 61 µM (inactive) | GI50 (HL-60): 7.23 µM (inactive) | GI50 (NCI-H460): 65.6 µM (inactive) | GI50 (SK-MEL-5): 58.7 µM (inactive) | GI50 (HOP-92): > 100 µM (inactive) | GI50 (OVCAR-3): 33.1 µM (inactive) | GI50 (K562): 14.7 µM (inactive) | GI50 (LOX IMVI): 22.3 µM (inactive) | GI50 (SNB-78): > 100 µM (inactive) | GI50 (A549): 43.1 µM (inactive) | GI50 (CCRF-CEM): 9.53 µM (inactive) | GI50 (UACC-257): 55.6 µM (inactive) | GI50 (DMS-114): 16.3 µM (inactive) | GI50 (TK-10): > 100 µM (inactive) | GI50 (DMS-273): 44.5 µM (inactive) | GI50 (NCI-H23): > 61.5 µM (inactive) | GI50 (RXF 631): > 73.3 µM (inactive) | GI50 (DLD-1): 31 µM (inactive) | GI50 (KM12): 23.1 µM (inactive)

COc1c(I)c(OC)c2c(c1I)O[C@@H]1OCC[C@H]21
GI50 (SW-620): 35 µM (inactive) | GI50 (LXFL 529): 26.9 µM (inactive) | GI50 (KM-20L2): 65.3 µM (inactive) | GI50 (HCT-116): 35.6 µM (inactive) | GI50 (XF498): 30.3 µM (inactive) | GI50 (OVCAR-8): 33 µM (inactive) | GI50 (SNB-75): 27.2 µM (inactive) | GI50 (OVCAR-5): 41.1 µM (inactive) | GI50 (HOP-18): 24.3 µM (inactive) | GI50 (HCT-15): 35.6 µM | GI50 (SNB-19): 77.1 µM (inactive) | GI50 (SK-OV-3): 31.8 µM (inactive) | GI50 (SF-295): 38.2 µM (inactive) | GI50 (UACC-62): 32.5 µM (inactive) | GI50 (HOP-62): 17.4 µM (inactive) | GI50 (NCI-H226): 23.6 µM (inactive) | GI50 (SN12C): 31.3 µM (inactive) | GI50 (HCC 2998): 30.5 µM (inactive) | GI50 (SK-MEL-2): 19.9 µM (inactive) | GI50 (A498): 28.4 µM (inactive) | GI50 (RXF 393): 37.4 µM (inactive) | GI50 (RPMI-8226): 19.7 µM (inactive) | GI50 (ACHN): 17.3 µM (inactive) | GI50 (CAKI-1): 0.098 µM (active) | GI50 (OVCAR-4): 23.6 µM (inactive) | GI50 (SK-MEL-28): 34.2 µM (inactive) | GI50 (IGROV-1): 37.6 µM (inactive) | GI50 (MOLT-4): 20 µM (inactive) | GI50 (HT-29): 39.4 µM (inactive) | GI50 (U-251): 37.6 µM (inactive) | GI50 (M14): 24.9 µM (inactive) | GI50 (786-0): 34.8 µM (inactive) | GI50 (EKVX): 74.8 µM (inactive) | GI50 (SR): 15.7 µM (inactive) | GI50 (Malme-3M): 34 µM (inactive) | GI50 (UO-31): 22.4 µM (inactive) | GI50 (COLO 205): 20 µM (inactive) | GI50 (SF-539): > 100 µM (inactive) | GI50 (M19-MEL): 23.8 µM (inactive) | GI50 (HL-60): 17.3 µM (inactive) | GI50 (NCI-H460): 20.2 µM (inactive) | GI50 (SK-MEL-5): 13.7 µM (inactive) | GI50 (HOP-92): 22.7 µM (inactive) | GI50 (OVCAR-3): 27.7 µM (inactive) | GI50 (K562): 41.2 µM (inactive) | GI50 (LOX IMVI): 32.4 µM (inactive) | GI50 (SNB-78): 57.9 µM (inactive) | GI50 (A549): 34 µM (inactive) | GI50 (CCRF-CEM): 27.5 µM (inactive) | GI50 (UACC-257): 26.1 µM (inactive) | GI50 (DMS-114): 26.5 µM (inactive) | GI50 (TK-10): 40.6 µM (inactive) | GI50 (DMS-273): 23.1 µM (inactive) | GI50 (NCI-H23): 30.6 µM (inactive) | GI50 (RXF 631): 29.9 µM (inactive) | GI50 (DLD-1): > 100 µM (inactive) | GI50 (KM12): 29.7 µM (inactive)
